Values of other authors in publication PMC11084461, “The First Reciprocal Activities of Chiral Peptide Pharmaceuticals: Thymogen and Thymodepressin, as Examples” (International Journal of Molecular Sciences, 2024).
Like-named read-outs stand apart in the source and are kept apart here.

Columns and labels:
[1] = tested on: thymocyte regeneration; parameters: method as in PMID 6971758; conditions: same conditions for all isomers
[2] = tested on: hematopoietic stem cell progenitors; parameters: method as in ref 82 = [82]; 82. Vladimirskaya E.B. Osipova Y.E. Kaznacheev K.S. Ivanova K.A. Deigin V.I. Rumyantsev A.G. The effect of Thymodepressin on the proliferation of human hematopoietic progenitor cells Hematol. Transfus; conditions: in vitro in methylcellulose, MTT test; dose range from 1 µg/mL to 10 µg/mL
[3] = tested on: colony-forming unit (CFU); parameters: method as in PMID 30927190; conditions: lethally irradiated mice, i/p on days 1, 2 and 3 after allogeneic bone marrow transplantation
[4] = tested on: bone marrow cells; parameters: method as in PMID 16307056; conditions: mice irradiated 4 Gy, treated seven days after irradiation, read on day eight
[5] = tested on: bone marrow; parameters: method as in ref 92 = [92]; 92. Dyadkin V.Y. Shamov B.A. The experimental application of Thymodepressin in patients with psoriasis Dermatology 2003 1 36; conditions: pre-treatment two days before irradiation; seven days after irradiation, persisted 14 observation days
[6] = tested on: hematopoietic progenitor cells; parameters: method as in ref 74 = [74]; 74. Semina O.V. Semenets T.N. Deigin V.I. Korotkov A.M. Vinogradova Y.E. Poverenny A.M. Stimulation with Thymogen (EW), a dipeptide that has immunoprotective properties to restore hematopoiesis in irr; conditions: mice; for Protective effect on hematopoietic progenitor cells after Cytosar treatment: administered two days before Cytosar injection
[7] = tested on: autoantibodies; parameters: method as in ref 97 = [97]; 97. Krasilshchikova M. Leonov V. Zatsepina O. Deigin V. Immunosuppressor studies of Thymodepressin in the experimental autoimmune model Immunology 2009 5 290 294; conditions: SJL/J mouse
[8] = tested on: psoriasis vulgaris; parameters: method as in PMID 15199399
[9] = tested on: CFU-C-8 cells; parameters: method as in PMID 19145362
[10] = tested on: mature T-lymphocyte; parameters: method as in PMID 12360601; conditions: indicated by changed CD25+ and CD69+ markers
[11] = tested on: leukocytes; parameters: method as in ref 75 = [75]; 75. Vinogradova Y.E. Deigin V.I. Korotkov A.M. Semina O.V. Sements T.N. Poverenny A.M. Use of Thymogen for the treatment of patients with diseases of the blood system. The influence of Thymogen on the; conditions: patients after polychemotherapy receiving Thymogen
[12] = experimental group (29 patients)

Q: For D-Glu-D-Trp, which “Influence on thymocyte regeneration (restoring E-rosette-forming units)” value (“Influence on thymocyte regeneration” below) [1] is on record?
A: Its value is “effective inhibitors of thymocyte regeneration”.

Q: Which “Influence on thymocyte regeneration” value [1] does the source give for D-Glu(D-Trp) [Thymodepressin] here?
A: Its value is “effective inhibitors of thymocyte regeneration”.

Q: And the “Cloning efficiency of hematopoietic stem cell progenitors” value [2]?
A: Its value is “suppresses the cloning efficiency of all hematopoietic stem cell progenitors”.

Q: And the “Yield of colonies compared to the control animals” value [3]?
A: Its value is “approximately four times”.

Q: And the “Rate of dividing bone marrow cells” value [4]?
A: The value was “below that of the intact control”.

Q: And the “Bone marrow cell number (cellularity)” value [5]?
A: Its value is “restored to an intact level”.

Q: What about the “Protective effect on hematopoietic progenitor cells after Cytosar treatment” value [6] of the same substance?
A: The value was “completely protected”.

Q: And the “Number of CFU-S-8 colonies” value ([6]; two days before Cytosar, after 3 h and up to seven days)?
A: The value was “restored the number of CFU-S-8 colonies to an intact level”.

Q: What about the “Dose of most effective immunosuppression, therapeutic regimen” value [7] of the same substance?
A: The value was 0.7 mg/kg.

Q: And the “Immunosuppressive effect, prophylactic regimen” value ([7]; doses 0.14, 0.35 and 0.7 mg/kg)?
A: The value was “pronounced immunosuppressive effect”.

Q: What about the “Immunosuppressive effect, therapeutic regimen” value ([7]; doses 0.14, 0.35 and 0.7 mg/kg) of the same substance?
A: The value was “distinct immunosuppressive effect”.

Q: What about the “Persistence of effect after the end of the drug administration” value ([7]; prophylactic regimen) of the same substance?
A: Its value is “over ten weeks”.

Q: What about the Clinical improvement [8, 12] of the same substance?
A: The Clinical improvement was 13 patients.

Q: And the Significant clinical improvement [8, 12]?
A: Its Significant clinical improvement is 16 patients.

Q: And the “PASI (Psoriasis Area and Severity Index)” value ([8]; experimental group (29 patients), 1st day of treatment, i/m 1 mL 0.1% solution)?
A: The value was 26.8.

Q: And the “PASI (Psoriasis Area and Severity Index)” value ([8]; experimental group, 21st day, three i/m courses of 1 mL 0.1% solution daily for five days)?
A: The value was 8.6.

Q: And the “Decrease in the PASI index” value ([8]; experimental group, day 1 to day 21)?
A: Its value is 70%.

Q: What about the “Number of leucocytes in the blood” value ([9]; experimental animal, after administration of the peptide) of the same substance?
A: Its value is “dose-dependent transient decrease”.

Q: And the “Number of committed CFU-C-8 cells in the S-phase of the cell cycle” value ([9]; in vitro and in vivo)?
A: Its value is “reducing the number of committed CFU-C-8 cells in the S-phase”.

Q: And the “Mature T-lymphocyte activation” value [10]?
A: Its value is “suppression of mature T-lymphocyte activation”.

Q: Which results are given for L-Glu-L-Trp [Thymogen]?
A: Influence on thymocyte regeneration (restoring E-rosette-forming units) [1]: stimulating activity; Average leukocyte count compared to the group receiving protocol treatment [11]: doubled

Q: With L-Glu–(L-Trp)-OH as the substance, how does the “Influence on thymocyte regeneration” value [1] read?
A: Its value is “stimulating activity”.

Q: For Cyclosporine [reference compound], which “Protective effect on hematopoietic progenitor cells after Cytosar treatment” value [6] is on record?
A: The value was “had no effect”.

Q: And the “Effective dose, prophylactic regimen” value [7]?
A: Its value is 20 to 50 mg/kg.

Q: What about the “Dose at which statistically significant effect was achieved” value ([7]; prophylactic regimen) of the same substance?
A: Its value is 50 mg/kg.
